Results taken from US12180226B2, “Spirotricycle RIPK1 inhibitors and methods of uses thereof” (Merck Sharp & Dohme LLC, priority 2021, dated 2024).
Structures can show the parent of a compound that is named as a salt.

target: RIPK1 (recombinant GST-RIPK1 kinase domain, residues 1-327) (Homo sapiens (Human), UniProt Q13546); assay: RIPK1-ADP-Glo Enzymatic Assay; assay type: biochemical; settings: ADP-Glo; 25 nM GST-RIPK1, 300 μM ATP; assay lower limit ~25 nM; read-out: RIPK1 V0 Ec50
Procedure, shortened: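 GST-tagged kinase domain (residues 1-327, Sf21-expressed), 25 nM, pre-incubated 30 min with compound at ambient temperature, then reacted 150 min with 300 μM ATP and 3 μM dephosphorylated MBP in HEPES pH 7.3 buffer. ADP measured by ADP-Glo luminescence; EC50 from ten-point titration (top 100000 nM), four-parameter fit.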

Chain of RIPK1 (recombinant GST-RIPK1 kinase domain, residues 1-327) (Q13546 1-327): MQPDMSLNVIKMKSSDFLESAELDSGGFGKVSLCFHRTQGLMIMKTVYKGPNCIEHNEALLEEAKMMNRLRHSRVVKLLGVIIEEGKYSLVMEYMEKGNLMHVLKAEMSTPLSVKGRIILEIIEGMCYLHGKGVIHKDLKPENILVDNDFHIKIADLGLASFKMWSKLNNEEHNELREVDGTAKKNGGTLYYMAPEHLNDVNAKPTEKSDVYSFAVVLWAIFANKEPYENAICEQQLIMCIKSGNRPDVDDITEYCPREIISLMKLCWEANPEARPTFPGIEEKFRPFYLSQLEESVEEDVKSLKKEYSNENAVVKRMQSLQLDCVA

Question: Which EC50 does the source give for CCOc1cccc(C(=O)N2CCC3(CC2)O[C@@H]2CC[C@@H](c4cccc(F)c4)N2C3=O)c1 [Example 6.121, (5′S,7a′R)-1-(3-ethoxy-benzene-1-carbonyl)-5′-(3-fluorophenyl)-tetrahydro-3′H-spiro [piperidine-4,2′-pyrrolo[2,1-b][1,3]oxazol]-3′-one] here?
Answer: < 25 nM

Question: For CCc1cnc(N2CCC3(CC2)O[C@@H]2CC[C@@H](c4cc(F)cc(F)c4)N2C3=O)nc1 [Example 4.60, (5′S,7a′R)-5′-(3,5-difluorophenyl)-1-(5-ethylpyrimidin-2-yl)tetrahydro-3′H-spiro[piperidine-4,2′-pyrrolo[2,1-b] [1,3]oxazol]-3′-one], which EC50 is on record?
Answer: 452 nM

Question: How did the EC50 turn out when O=C1N2[C@@H](CC[C@H]2c2ccccc2)OC12CCN(c1cccn3nccc13)CC2 [Example 4.150, (5′S,7a′R)-5′-phenyl-1-(pyrazolo[1,5-a]pyridin-4-yl)tetrahydro-3′H-spiro[piperidine-4,2′-pyrrolo[2,1-b] [1,3]oxazol]-3′-one] was run?
Answer: 34.4 nM

Question: Which EC50 does the source give for Cc1ncc([C@@H]2CC[C@H]3OC4(CCN(c5ccnc6c(F)cnn56)CC4F)C(=O)N32)cc1F (stereo partly drawn) [Example 4.130, (5′S,7a′R)-3-fluoro-5′-(5-fluoro-6-methylpyridin-3-yl)-1-(3-fluoropyrazolo[1,5-a]pyrimidin-7-yl)tetrahydro-3′H-spiro[piperidine-4,2′-pyrrolo[2,1-b] [1,3]oxazol]-3′-one] here?
Answer: < 25 nM

Question: Which EC50 does the source give for O=C1N2[C@H](CC[C@@H]2c2ccccc2)SC12CCN(c1ccnc3ccnn13)CC2 [Example 4.115, (5′R,7a′S)-5′-phenyl-1-(pyrazolo[1,5-a]pyrimidin-7-yl)tetrahydro-3′H-spiro[piperidine-4,2′-pyrrolo[2,1-b]thiazol]-3′-one] here?
Answer: 180 nM

Question: With O=C1N2[C@@H](CC[C@H]2c2ccccc2)OC12CN(c1ccnc3ccnn13)C2 [Example 4.136, (5′S,7a′R)-5′-phenyl-1-(pyrazolo[1,5-a]pyrimidin-7-yl)tetrahydro-3′H-spiro[azetidine-3,2′-pyrrolo[2,1-b] [1,3]oxazol]-3′-one] as the compound, how does the EC50 read?
Answer: < 25 nM

Question: For O=C1N2[C@@H](CC[C@H]2c2ccccc2)OC12CCN(c1cc(-n3ccnc3)ncn1)CC2 [Example 4.171, (5′S,7a′R)-1-[6-(1H-imidazol-1-yl)pyrimidin-4-yl]-5′-phenyltetrahydro-3′H-spiro[piperidine-4,2′-pyrrolo[2,1-b] [1,3]oxazol]-3′-one], which EC50 is on record?
Answer: < 25 nM

Question: With O=C(c1sccc1Cl)N1CCC2(CC1)O[C@@H]1CC[C@@H](c3cc(F)cc(F)c3)N1C2=O [Example 5.31, (5′S,7a′R)-1-(3-chloro-thiophene-2-carbonyl)-5′-(3,5-difluorophenyl)tetra-hydro-3′H-spiro[piperi-dine-4,2′-pyrrolo[2,1-b]oxazol]-3′-one] as the compound, how does the EC50 read?
Answer: < 25 nM

Question: For O=C1N2[C@@H](CC[C@H]2c2cc(F)cc(F)c2)OC12CCN(c1cncc3nccn13)CC2 [Example 13.8, (5′S,7a′R)-5′-(3,5-difluorophenyl)-1-(imidazo[1,2-a]pyrazin-5-yl)tetrahydro-3′H-spiro[piperidine-4,2′-pyrrolo[2,1-b]oxazol]-3′-one, TFA salt], which EC50 is on record?
Answer: 664 nM

Question: With O=C1N2[C@@H](CC[C@H]2c2ccccc2)OC12CCN(c1ncnc3ccnn13)CC2F (single isomer, unassigned) [Example 4.98, (3[S or R],4[R or S], 5′S,7a′R)-3-fluoro-5′-phenyl-1-(pyrazolo [1,5-a][1,3,5]triazin-4-yl)tetrahydro-3′H-spiro[piperidine-4,2′-pyrrolo[2,1-b]oxazol]-3′-one] as the compound, how does the EC50 read?
Answer: 36.3 nM

Question: Which EC50 does the source give for O=C(c1cc(F)cc(F)c1)N1CCC2(CC1)O[C@@H]1CC[C@@H](c3cc(F)cc(F)c3)N1C2=O [Example 6.48, (5′S,7a′R)-1-(3,5-difluorobenzene-1-carbonyl)-5′-(3,5-difluorophenyl)tetra-hydro-3′H-spiro [piperidine-4,2′-pyrrolo[2,1-b][1,3]oxazol]-3′-one] here?
Answer: 34.2 nM
